Assay [1] has as its system 5-HT1A serotonin receptor sites. Particulars: background statement, no reference given; cited from earlier work.
The next assay addresses T1, 5-HT1A receptors (Rattus norvegicus, UniProt P19327).
T1 sequence (P19327 1-422): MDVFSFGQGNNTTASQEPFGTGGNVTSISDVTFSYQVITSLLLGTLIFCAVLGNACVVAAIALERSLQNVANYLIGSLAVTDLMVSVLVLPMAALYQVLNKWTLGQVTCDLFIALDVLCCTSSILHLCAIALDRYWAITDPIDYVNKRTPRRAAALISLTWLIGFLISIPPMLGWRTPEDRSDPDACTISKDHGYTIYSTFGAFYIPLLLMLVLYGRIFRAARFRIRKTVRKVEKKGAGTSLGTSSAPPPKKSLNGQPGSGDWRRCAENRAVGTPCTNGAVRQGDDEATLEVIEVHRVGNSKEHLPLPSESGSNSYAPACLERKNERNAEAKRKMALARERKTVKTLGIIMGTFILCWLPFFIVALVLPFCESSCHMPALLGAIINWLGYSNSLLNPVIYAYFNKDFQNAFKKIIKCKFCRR
The assay is described as follows: Radioligand binding, displacement of [3H]-8-OH-DPAT in rat hippocampus. In general terms: In a radioligand displacement assay an active substance lowers the binding of a labelled ligand.

A further assay addresses 5-HT2A receptors (Rattus norvegicus, UniProt P14842). Nature of the assay: Radioligand binding, displacement of [3H]-ketanserin in rat cortex.

Structures are written as SMILES.

This is an account of results in publication PMC6236407 (Molecules : A Journal of Synthetic Chemistry and Natural …, 2001).

Chain of 5-HT2A receptors (P14842 whole entry): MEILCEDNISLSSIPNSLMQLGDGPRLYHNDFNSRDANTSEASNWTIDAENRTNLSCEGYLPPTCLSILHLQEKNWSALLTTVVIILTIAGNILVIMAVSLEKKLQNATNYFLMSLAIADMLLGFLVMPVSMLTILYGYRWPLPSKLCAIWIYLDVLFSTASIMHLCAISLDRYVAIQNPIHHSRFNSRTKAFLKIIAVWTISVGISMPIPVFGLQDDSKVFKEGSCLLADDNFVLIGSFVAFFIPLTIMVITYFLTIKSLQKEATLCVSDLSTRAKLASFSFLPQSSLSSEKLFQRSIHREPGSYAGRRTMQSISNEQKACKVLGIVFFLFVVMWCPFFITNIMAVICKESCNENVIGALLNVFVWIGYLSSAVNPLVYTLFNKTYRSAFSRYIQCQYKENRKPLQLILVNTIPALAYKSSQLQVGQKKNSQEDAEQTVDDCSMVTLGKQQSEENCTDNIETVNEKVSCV

On to `O=C1CC2(CCCC2)CC(=O)N1CCCCN1CCN(c2ncccn2)CC1` [Buspirone, {4-[4-(2-pyrimidinyl)-1-piperazinyl]butyl}-8-azaspiro[4.5]decane-7,9-dione], for which, in assay [1], the “binding to 5-HT1A serotonin receptor sites (in words)” value (“binding” below) was “high affinity and selectivity”.

In the case of `O=c1c2ccccc2c(=O)n(-c2ccccc2)n1CCCCN1CCN(c2ccccc2)CC1` [Compound 8c, 3-[4-(4-phenyl-1-piperazinyl)butyl]-2-phenyl-2,3-dihydrophthalazine-1,4-dione], the Ki (as a rule, the equilibrium dissociation constant of an inhibitor or competing ligand from its target) at 5-HT1A receptors is 0.119 ± 0.008 µM; on 5-HT2A receptors, 0.309 ± 0.001 µM.

On to `O=c1ccc(=O)n(-c2ccccc2)n1CCCCN1CCN(c2ccccc2)CC1` [Compound 9c, 2-[4-(4-phenyl-1-piperazinyl)butyl]-1-phenyl-1,2-dihydropyridazine-3,6-dione], for which the Ki on 5-HT1A receptors came out at 0.019 ± 0.001 µM; at 5-HT2A receptors, 0.409 ± 0.017 µM. In the case of `CC1(C)CC(=O)N(CCCCN2CCN(c3ncccn3)CC2)C(=O)C1` [Gepirone], in assay [1], the “binding” value was “high affinity and selectivity”.

For the compound `O=C1c2ccccc2S(=O)(=O)N1CCCCN1CCN(c2ncccn2)CC1` [Ipsapirone], in assay [1], the “binding” value is “high affinity and selectivity”.
